Data on 14 compounds can be found in ChEMBL document CHEMBL4725324, “In vitro and in vivo evaluation of the antimalarial MMV665831 and structural analogs” (Bioorg Med Chem Lett, 2020).

Molecules are shown by their SMILES. The source made the active and inactive calls. The calls are words filed in the database; no cut-off is given here.

For one series, the system named is Plasmodium berghei. Briefly: Antimalarial activity against blood-stage Plasmodium berghei infected in mouse assessed as reduction in parasite growth at 40 mg/kg, po. Type of series: functional, organism-based.
A short description of series [1]: Stability in mouse hepatocytes assessed as half life. The series is classed as ADME, cell-based, Hepatocyte.
For the next series, the system named is Plasmodium falciparum. The series can be described thus: Antimalarial activity against Plasmodium falciparum 3D7 assessed as reduction in parasite growth incubated for 48 hrs. Type of series: functional, organism-based. Particulars: 3D7, 48 h.
Series [2] can be described thus: Stability in mouse plasma assessed as carboxylesterase-mediated reduction in parent compound incubated for over 120 mins. Type of series: ADME, cell-free. The conditions noted are these: 2 h.
The nature of series [3]: Stability in methanolic diethylamine at 40 degC measured after 2 days 1H-NMR analysis. Type of series: physicochemical. Particulars: 48 h; time 2 day.
Series [4] is described as follows: Drug metabolism in 0.1 M DCl in D20 assessed as ethyl 2-benzamido-4-deuterio-6-(dimethylaminomethyl)-7-hydroxy-benzothiophene-3-carboxylate formation at 90 degC after 24 hrs.
Series [5] can be described thus: Stability in methanolic diethylamine at 40 degC measured after 2 days HRMS analysis. Type of series: physicochemical. Particulars: 48 h; time 2 day.
Series [6] can be described thus: Stability in D2O at 90 degC measured after 1 day HRMS analysis. The series is classed as physicochemical. The conditions noted are these: 24 h.
The nature of series [7]: Solubility of compound in D2O. Type of series: physicochemical.
Series [8] in a line: Solubility of compound in CDCl3. The series is classed as physicochemical.
Series [9] is described as follows: Stability in D2O at 50 degC measured after 7 days HRMS analysis. Particulars: 168 h; time 7 day. Type of series: physicochemical.

Broadly, the EC50 is the concentration at which the effect is half-maximal. Turning to `CCOC(=O)c1c(NC(=O)c2ccccc2)sc2c(O)c(CN(CC)CC)ccc12`, the result with Plasmodium berghei was inactive. The t1/2 in [1] came out at 11 min. Also, the EC50 in the series with Plasmodium falciparum was found to be 27 nM. Moreover, in [2], the Stabilty result is on record as “Stable”. As to `CCOC(=O)c1c(NC(=O)c2ccccc2)sc2c(O)c(CN3CCOCC3)ccc12`, the EC50 in the series with Plasmodium falciparum was 100 nM. Take `CCOC(=O)c1c(NC(=O)c2ccccc2)sc2c(O)c(CN3CCCCC3)ccc12`: the EC50 with Plasmodium falciparum is 13 nM. For the compound `CCOC(=O)c1c(NC(=O)c2ccccc2)sc2c(O)c(CN(C)C)ccc12.Cl`, the Stabilty entry in [3] is reported as “Stable”; in [5], “Stable”; in series [6], “Unstable”; in series [9], “Stable”. The Drug metabolism entry in series [4] is given as “Metabolite detected”. In the series on Plasmodium falciparum, the EC50 is 24 nM. The solubility result in series [7] and in series [8] was “Insoluble” each time.

`O[C@@H](c1cc(C(F)(F)F)nc2c(C(F)(F)F)cccc12)[C@H]1CCCCN1` [(S,R)-MEFLOQUINE]: the concentration for a half-maximal effect (EC50) in the series with Plasmodium falciparum turned out to be 16 nM. As for `CCOC(=O)c1c(NC(=O)c2ccccc2)sc2c(O)c(CNC34CC5CC(CC(C5)C3)C4)ccc12`, the EC50 in the series on Plasmodium falciparum is 388 nM.

Regarding `CCOC(=O)c1c(NC(=O)c2ccccc2)sc2c(OC)c(CN(CC)CC)ccc12`, the EC50 in the series with Plasmodium falciparum is > 1000 nM. Turning to `CCOC(=O)c1c(NC(=O)c2ccccc2)sc2c(O)c(CN3CCCC3)ccc12`, in the series on Plasmodium falciparum, the EC50 is 16 nM.

`CCCN(CCC)Cc1ccc2c(C(=O)OCC)c(NC(=O)c3ccccc3)sc2c1O`: the EC50 in the series with Plasmodium falciparum was found to be 16 nM. Still for that read-out and setting: with `CCN(CC)Cc1ccc2c(C(=O)OC)c(NC(=O)c3ccccc3)sc2c1O` the figure was 53 nM; with `CCOC(=O)c1c(NC(=O)c2ccc(OC)cc2)sc2c(O)c(CN(CC)CC)ccc12`, 66 nM; with `CCOC(=O)c1c(NC(=O)c2ccccc2)sc2c(O)c(CCN(C)C)ccc12`, 182 nM. `CCN(CC)Cc1ccc2c(C(=O)NC)c(NC(=O)c3ccccc3)sc2c1O`: in the series on Plasmodium falciparum, the EC50 was > 1000 nM.

For the compound `CCOC(=O)c1c(NC(=O)c2ccc(Cl)cc2)sc2c(O)c(CN(CC)CC)ccc12`, the EC50 with Plasmodium falciparum stood at 70 nM.
